According to PubChem BioAssay AID1963848 (Molecular Pharmacology Branch, DTP, NCI, 2024):
Where “and” joins values, the source holds several entries; their conditions need not be identical. Equal values may be shown once.

Test system: 379773-124-R-J2-PDC spheroid viability
Assay: Anticancer human tumor 379773-124-R-J2-PDC patient-derived endometrial carcinoma cell line growth inhibition [POLQ]
Conditions: spheroids with HUVEC and MSC; for viability, T/C: stronger effect = lower value; for IC50: curve of compound
Description: Multicellular complex tumor spheroid response to Polymerase (POL) inhibitors (novobiocin, ART-558, RP6685) in combination with a variety of drugs and investigational agents in selected tumor cell lines
The POL inhibitors (novobiocin, ART-558, and RP6685) were evaluated both individually and in combination with standard of care and investigational anticancer small molecules within a complex spheroid model of solid tumors. . Complex spheroids include a stromal component modeled by human endothelial cells (HUVEC) and fibroblasts modeled by human mesenchymal stem cells (MSCs). The concentration ranges selected for each drug and investigational agent were based upon clinically achievable concentrations if the clinical Cmax of the agent was known.
Compounds. The drugs and investigational agents: novobiocin (NSC847541), ART-558 (NSC835418), RP-6685 (NSC848927), peposertib (NSC802822), ceralasertib (NSC780249), elimusertib (NSC800525), camonsertib (NSC841442), AZD-1390 (NSC803789), olaparib (NSC753686), talazoparib (NSC767125), rucaparib (NSC756644), sotorasib (NSC818433), MRTX-1133 (NSC836407), SN-38 (NSC673596), topotecan (NSC609699), epotoside (NSC141540), doxorubicin (NSC123127), gemcitabine (NSC613327), 5-fluorouracil (NSC19893), paclitaxel (NSC125973), vemurafenib (NSC761431), MSA-2 (NSC828583), SN-011 (NSC837082), adavosertib (NSC754352), prexasertib (NSC758257), carboplatin (NSC241240) and oxaliplatin (NSC266046), were obtained from the National Cancer Institute (NCI) Developmental Therapeutics Program Chemical Repository (21). The FDA-approved anticancer drug set is available from the Developmental Therapeutics Program at https://dtp.cancer.gov/organization/dscb/obtaining/. […] The stock solutions were prepared in dimethyl sulfoxide (DMSO, Sigma-Aldrich, St. Louis, MO, cat. D2650), except for the platinum compounds which were prepared in saline (Quality Biological, Gaithersburg, MD, cat. 114-055-101), at 800-fold the tested concentration and stored at -70 degrees C prior to their use. All drugs and investigational agents were tested over a range starting from a high concentration at or near the clinical Cmax and decreasing in half-log increments. If the clinical Cmax for an agent had not been determined, the highest concentration tested was 10 microM, except for SN-38, which was tested at a high concentration of 1 microM.
Cell Culture. All cells were maintained in an incubator at 37 degrees C and 5% CO2 with 95% humidity. The PDC lines were cultured according to standard operating procedures established by the NCI PDMR (https://pdmr.cancer.gov). Table 3 of the manuscript, lists the cell lines along with the number of the three cell types plated to form the mct-spheroids and media for tumor cell growth. After thawing, all PDC lines, except 997537-175-T-J1-PDC and 415267-285-R-J2-PDC, were cultured in Matrigel-coated flasks prepared with a working solution of 1X Ham's F-12 nutrient mix, without supplementation (Thermo Fisher Scientific, cat. 11765054), 100 U/mL penicillin-streptomycin (Thermo Fisher Scientific, cat. 15140122), and 2.5% Matrigel (Corning Inc., Corning, NY, cat. 354248) for the first three passages. The two PDC lines 997537-175-T-J1-PDC and 415267-285-R-J2-PDC were cultured on uncoated flasks. The 857933-349-R-J2-PDC line was cultured in 6C/Colon 1B media containing advanced DMEM/F-12 (Thermo Fisher Scientific, cat. 12634028), 10 mM HEPES (Thermo Fisher Scientific, cat. 15630080), 1X GlutaMAX supplement (Thermo Fisher Scientific, cat. 35050061), 0.1 mg/mL primocin (InvivoGen, San Diego, CA, cat. ant-pm-2), 10% defined fetal bovine serum, heat inactivated (HyClone Laboratories Inc., Logan, UT, cat. SH30070.03HI), 50% L-WRN conditioned media (ATCC, cat. CRL-3276), 1.25 mM N-Acetyl-L-cysteine (Sigma-Aldrich, cat. A9165), 10 mM nicotinamide (Sigma-Aldrich, cat. N0636), 1X B-27 supplement (Thermo Fisher Scientific, cat. 17504044), 1X N-2 supplement (Thermo Fisher Scientific, cat. […]
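Also: spheroids exposed to drugs for seven days before readout.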
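For viability, T/C in this document: percent viability relative to DMSO vehicle control taken as 100%.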

SMILES | viability, T/C (compound 0.0316 µM) | viability, T/C (compound 0.1 µM) | viability, T/C (compound 0.316 µM) | viability, T/C (compound 1 µM) | viability, T/C (compound 3.16 µM) | viability, T/C (compound 10 µM) | IC50
C#Cc1c(F)ccc2cc(O)cc(-c3ncc4c(N5CC6CCC(C5)N6)nc(OCC56CCCN5CC(F)C6)nc4c3F)c12 (stereo unspecified) | 89.7% and 98.6% and 95.6% | 75.8% and 86.8% and 84.9% | 76.9% and 105% and 79.6% | 82.7% and 98.4% and 90.6% | 87.1% and 98.4% and 87.7% | 81.7% and 93% and 90.7% | > 10000 nM
C=CC(=O)N1CCN(c2nc(=O)n(-c3c(C)ccnc3C(C)C)c3nc(-c4c(O)cccc4F)c(F)cc23)C(C)C1 (stereo unspecified) | 97.8% and 95.1% and 86.4% | 86.7% and 106% and 91.7% | 70% and 103% and 89.9% | 86.1% and 93.1% and 87.7% | 88.5% and 95.5% and 97.6% | 78.4% and 95.8% and 85.6% | > 10000 nM
CC(C)n1c(=O)n(C)c2cnc3cc(F)c(-c4ccc(OCCCN5CCCCC5)nc4)cc3c21 | 77.5% and 102% and 83.2% | 79.5% and 84.1% and 87.8% | 78.7% and 88.7% and 68% | 76.8% and 87.2% and 74.2% | 80% and 93.2% and 82.2% | 53.6% and 72.2% and 62.8% | > 10000 nM
CC1COCCN1c1cc(-c2ccnn2C)c2ccnc(-c3ccn[nH]3)c2n1 (stereo unspecified) | 75.5% and 78.8% and 88.4% | 53.1% and 47.6% and 54.7% | 11.6% and 8.88% and 12.7% | 8.44% and 8.27% and 10.5% | 10.4% and 10.8% and 12.3% | 5.02% and 6.19% and 8.08% | 109 nM and 91.5 nM and 114 nM
CC1COCCN1c1cc(C2(O)CC3CCC(C2)O3)c2cnn(-c3ccn[nH]3)c2n1 (stereo unspecified) | 90.7% and 78.4% and 84.5% | 43% and 48.6% and 58.8% | 11.1% and 12% and 16.6% | 10.4% and 9.93% and 13.2% | 8.43% and 7.19% and 10.1% | 2.25% and 2.29% and 3.67% | 84.4 nM and 94.4 nM and 127 nM
CC1COCCN1c1cc(C2(S(C)(=N)=O)CC2)nc(-c2ccnc3[nH]ccc23)n1 (stereo unspecified) | 78.3% and 87.6% and 81.5% | 69.2% and 89.3% and 88.1% | 71.7% and 86.7% and 72.9% | 80.9% and 82.7% and 76.1% | 34.5% and 44.9% and 28.5% | 5.53% and 11.9% and 6.3% | 2040 nM and 2710 nM and 1870 nM
CCc1cc2c(N3CCc4c(cc(Cn5ccnc5)cc4-c4cn(C)nc4C(F)(F)F)C3=O)cc(C)nc2c(OC)n1 | 70.7% and 94% and 69.3% | 73.2% and 69.1% and 70.4% | 54.8% and 60.2% and 68.2% | 55.9% and 57.2% and 61.2% | 41.9% and 60.5% and 56.2% | 40% and 47.3% and 48.9% | 1260 nM and > 10000 nM and 8120 nM
CCc1cc2c(N3CCc4c(cc(Cn5ccnc5)cc4-c4cn(C)nc4C(F)(F)F)C3=O)ccnc2c(OC)n1 | 72.1% and 87.3% and 77.8% | 65% and 74.8% and 74.2% | 53.4% and 64% and 69.2% | 54.6% and 64.1% and 67.8% | 63.3% and 59.9% and 57.4% | 37.2% and 57.8% and 53.6% | 3400 nM and > 10000 nM
